According to patent US20030135033A1, “Compounds and methods for the identification and/ or validation of a target” (priority 2002, published 2003):

Test system: 3Y1 cells
Test: UV-induced apoptosis in 3Y1 cells after GeneBloc treatment (cleaved caspase 3)
Assay type: cell-based, rat
Details: 48 h GeneBloc treatment, UV irradiation
Source text: Activation of the P13K pathway interferes with caspase-mediated apoptosis through Akt-activation. Apoptotic stimuli may either be cytokines like TNF, or UV-irradiation. In the present example of which the results of a Western blot analysis are shown in FIG. 7B, UV-irradiation was used as to induce apoptosis. PTEN is an inhibitor of PI-3K action. […] Activated Akt blocks caspases-mediated apoptosis. Apoptosis was monitored by the presence of cleaved Caspase 3.
If knock down of PTEN expression mediated by third generation antisense molecules (GeneBlocs) results in a functional activation of PI 3-kinase signalling, then increased phosphorylation and activation of Akt should interfere with the effects of apoptotic stimuli. […] It was previously shown that rat embryo fibroblasts undergo apoptosis after UV irradiation and that this response can be inhibited by activation of the PI 3-kinase pathway, and specifically by activated Akt (Kulik, G., Klippel, A. and Weber, M. J. (1997). Antiapoptotic signalling by the insulin-like growth factor I receptor, phosphatidylinositol 3-kinase, and Akt. Mol Cell Biol 17, 1595-1606)). We exposed 3Y1 cells to UV light after 48 h GeneBloc treatment. 3 h after irradiation cell extracts were harvested and analyzed for the presence of cleaved caspase 3 which is indicative for apoptosis. […] Cells which were not exposed to UV light after transfection contained very little amounts of cleaved caspase 3.

ucuccuuTTGTTTCTGcuaacga (UCUCCUUTTGTTTCTGCUAACGA; chemistry not fully specified) [PTEN 53, third generation antisense oligonucleotide (GeneBloc) against PTEN]
phosphorylated Akt: phosphorylated Akt is generated
